# According to ChEMBL document CHEMBL4411321, “Discovery of Potent, Selective, and Orally Bioavailable Estrogen-Related Receptor-γ Inverse Agonists To Restore the Sodium Iodide Symporter Function in Anaplastic Thyroid Cancer” (J Med Chem, 2019):
# Activity calls are given as the source filed them. The rule behind the calls is not given here.
# Assays:
# CYP1A2 = molecular target: T1, CYP1A2 (Homo sapiens, UniProt P05177); experiment: Inhibition of CYP1A2 in human liver microsomes assessed as reduction in phenacetin O-deethylase activity at 10 uM preincubated for 5 mins followed by NADPH addition and measured after 15 mins by LC-MS/MS analysis relative to control; type: ADME; settings: probe phenacetin (O-deethylation)
# T1 sequence (P05177 whole entry): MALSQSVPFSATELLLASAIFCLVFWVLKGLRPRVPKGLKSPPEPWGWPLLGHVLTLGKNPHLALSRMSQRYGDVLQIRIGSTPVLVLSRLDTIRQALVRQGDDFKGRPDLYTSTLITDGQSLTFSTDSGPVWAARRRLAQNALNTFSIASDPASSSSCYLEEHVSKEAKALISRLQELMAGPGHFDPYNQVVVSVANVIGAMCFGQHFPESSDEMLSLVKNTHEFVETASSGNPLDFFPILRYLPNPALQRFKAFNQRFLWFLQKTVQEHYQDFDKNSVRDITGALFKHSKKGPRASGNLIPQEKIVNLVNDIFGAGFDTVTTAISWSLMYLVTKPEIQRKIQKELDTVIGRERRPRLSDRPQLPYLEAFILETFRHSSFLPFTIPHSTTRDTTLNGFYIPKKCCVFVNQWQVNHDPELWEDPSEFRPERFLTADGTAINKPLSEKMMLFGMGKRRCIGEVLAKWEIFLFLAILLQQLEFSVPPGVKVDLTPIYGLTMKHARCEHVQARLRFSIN
# CYP2C9 = CYP2C9 (Homo sapiens, UniProt P11712); experiment: Inhibition of CYP2C9 in human liver microsomes assessed as reduction in tolbutamide 4-hydroxylase activity at 10 uM preincubated for 5 mins followed by NADPH addition and measured after 15 mins by LC-MS/MS analysis relative to control; type: ADME; settings: probe tolbutamide (4-hydroxylation)
# Chain of CYP2C9 (P11712 whole entry): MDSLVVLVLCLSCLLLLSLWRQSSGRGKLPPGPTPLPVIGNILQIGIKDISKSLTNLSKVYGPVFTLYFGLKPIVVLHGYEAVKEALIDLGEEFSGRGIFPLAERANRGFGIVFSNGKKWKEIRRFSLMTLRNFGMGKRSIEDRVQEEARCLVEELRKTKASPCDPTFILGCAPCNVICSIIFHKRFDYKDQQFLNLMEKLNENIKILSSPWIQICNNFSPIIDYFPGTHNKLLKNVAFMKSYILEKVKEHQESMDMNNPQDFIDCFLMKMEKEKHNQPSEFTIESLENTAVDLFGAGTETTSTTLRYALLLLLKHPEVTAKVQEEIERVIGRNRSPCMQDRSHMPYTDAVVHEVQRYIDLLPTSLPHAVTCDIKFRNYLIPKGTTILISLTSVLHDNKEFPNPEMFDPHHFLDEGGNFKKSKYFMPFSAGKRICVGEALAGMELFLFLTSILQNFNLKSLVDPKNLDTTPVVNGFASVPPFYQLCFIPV
# CYP2C19 = CYP2C19 (Homo sapiens, UniProt P33261); experiment: Inhibition of CYP2C19 in human liver microsomes assessed as reduction in S-mephenytoin 4-hydroxylase activity at 10 uM preincubated for 5 mins followed by NADPH addition and measured after 15 mins by LC-MS/MS analysis relative to control; type: ADME; settings: probe S-mephenytoin (4-hydroxylation)
# Chain of CYP2C19 (P33261 whole entry): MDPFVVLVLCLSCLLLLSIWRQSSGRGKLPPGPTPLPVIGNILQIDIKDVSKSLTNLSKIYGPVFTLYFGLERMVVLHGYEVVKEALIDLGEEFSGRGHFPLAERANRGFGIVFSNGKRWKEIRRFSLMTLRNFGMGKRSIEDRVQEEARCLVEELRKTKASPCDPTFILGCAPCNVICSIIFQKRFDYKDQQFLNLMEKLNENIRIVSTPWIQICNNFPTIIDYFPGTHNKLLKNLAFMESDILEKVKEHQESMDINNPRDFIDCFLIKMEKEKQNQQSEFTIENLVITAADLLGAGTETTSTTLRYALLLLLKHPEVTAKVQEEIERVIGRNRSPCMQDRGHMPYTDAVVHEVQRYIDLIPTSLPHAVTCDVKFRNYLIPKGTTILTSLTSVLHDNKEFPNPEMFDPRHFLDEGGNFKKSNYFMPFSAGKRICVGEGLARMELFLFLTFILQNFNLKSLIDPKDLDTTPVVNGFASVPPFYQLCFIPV
# CYP2D6 = CYP2D6 (Homo sapiens, UniProt P10635); experiment: Inhibition of CYP2D6 in human liver microsomes assessed as reduction in dextromethorphan O-demethylase activity at 10 uM preincubated for 5 mins followed by NADPH addition and measured after 15 mins by LC-MS/MS analysis relative to control; type: ADME; settings: probe dextromethorphan (O-demethylation)
# Chain of CYP2D6 (P10635 whole entry): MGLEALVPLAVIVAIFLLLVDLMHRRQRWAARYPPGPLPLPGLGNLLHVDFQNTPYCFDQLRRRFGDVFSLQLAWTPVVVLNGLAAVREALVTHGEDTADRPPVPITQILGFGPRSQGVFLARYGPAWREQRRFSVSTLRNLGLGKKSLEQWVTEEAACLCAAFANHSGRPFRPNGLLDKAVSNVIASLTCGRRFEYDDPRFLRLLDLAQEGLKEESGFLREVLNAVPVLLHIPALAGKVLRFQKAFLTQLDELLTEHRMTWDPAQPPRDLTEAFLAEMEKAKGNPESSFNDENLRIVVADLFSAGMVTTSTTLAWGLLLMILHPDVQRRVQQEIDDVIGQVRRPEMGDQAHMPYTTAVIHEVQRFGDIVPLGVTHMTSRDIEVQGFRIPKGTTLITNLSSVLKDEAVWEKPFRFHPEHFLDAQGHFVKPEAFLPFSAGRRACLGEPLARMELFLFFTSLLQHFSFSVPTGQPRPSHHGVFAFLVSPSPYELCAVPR
# CYP3A4 = CYP3A4 (Homo sapiens, UniProt P08684); experiment: Inhibition of CYP3A4 in human liver microsomes assessed as reduction in midazolam 1-hydroxylase activity at 10 uM preincubated for 5 mins followed by NADPH addition and measured after 15 mins by LC-MS/MS analysis relative to control; type: ADME; settings: probe midazolam (1-hydroxylation)
# Chain of CYP3A4 (P08684 whole entry): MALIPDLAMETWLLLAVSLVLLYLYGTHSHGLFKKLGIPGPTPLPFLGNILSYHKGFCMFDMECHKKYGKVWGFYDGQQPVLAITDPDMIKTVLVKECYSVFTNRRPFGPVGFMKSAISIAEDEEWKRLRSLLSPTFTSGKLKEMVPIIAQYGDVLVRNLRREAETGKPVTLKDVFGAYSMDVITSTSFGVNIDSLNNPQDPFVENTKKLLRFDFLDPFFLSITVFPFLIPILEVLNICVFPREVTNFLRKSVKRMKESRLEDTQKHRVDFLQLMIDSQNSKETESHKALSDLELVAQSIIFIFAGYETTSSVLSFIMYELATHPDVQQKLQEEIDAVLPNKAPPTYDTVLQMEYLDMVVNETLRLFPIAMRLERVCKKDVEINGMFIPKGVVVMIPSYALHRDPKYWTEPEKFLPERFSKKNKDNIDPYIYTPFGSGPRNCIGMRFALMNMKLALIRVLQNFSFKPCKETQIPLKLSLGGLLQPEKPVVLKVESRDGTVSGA
# [1] = Metabolic stability in human liver microsomes assessed as compound remaining at 1 uM after 30 mins in presence of NADPH regeneration system by LC-MS/MS analysis; type: ADME, Microsome; settings: read-out: Stability
# [2] = Metabolic stability in dog liver microsomes assessed as compound remaining at 1 uM after 30 mins in presence of NADPH regeneration system by LC-MS/MS analysis; type: ADME, Canis lupus familiaris, Microsome; settings: read-out: Stability
# [3] = Metabolic stability in rat liver microsomes assessed as compound remaining at 1 uM after 30 mins in presence of NADPH regeneration system by LC-MS/MS analysis; type: ADME, Microsome; settings: read-out: Stability
# [4] = Metabolic stability in mouse liver microsomes assessed as compound remaining at 1 uM after 30 mins in presence of NADPH regeneration system by LC-MS/MS analysis; type: ADME, Microsome; settings: read-out: Stability
# [5] = Effective permeability of the compound at 10 uM after 5 hrs by PAMPA; type: ADME; settings: read-out: Peff
# [6] = AUC (0 to infinity) in Sprague-Dawley rat at 1 mg/kg, iv by LC-MS/MS analysis; type: ADME, organism-based; design: dose 1 mg/kg, time infinity, route intravenous; settings: in vivo
# [7] = AUC (0 to infinity) in Sprague-Dawley rat at 9 to 10 mg/kg, po via gavage by LC-MS/MS analysis; type: ADME, organism-based; settings: in vivo
# [8] = Tmax in Sprague-Dawley rat at 9 to 10 mg/kg, po via gavage by LC-MS/MS analysis; type: ADME, organism-based; settings: in vivo
# [9] = molecular target: T2, Estrogen-related receptor gamma (Homo sapiens) (UniProt P62508); experiment: Inverse agonist activity at ERRgamma in human BHT101 cells assessed as restoration of sodium iodide symporter function by measuring increase in radioiodide avidity at 6 to 12 uM after 24 hrs by gamma counting analysis based [125-I]-iodide uptake assay; type: cell-based
# T2 sequence (whole entry): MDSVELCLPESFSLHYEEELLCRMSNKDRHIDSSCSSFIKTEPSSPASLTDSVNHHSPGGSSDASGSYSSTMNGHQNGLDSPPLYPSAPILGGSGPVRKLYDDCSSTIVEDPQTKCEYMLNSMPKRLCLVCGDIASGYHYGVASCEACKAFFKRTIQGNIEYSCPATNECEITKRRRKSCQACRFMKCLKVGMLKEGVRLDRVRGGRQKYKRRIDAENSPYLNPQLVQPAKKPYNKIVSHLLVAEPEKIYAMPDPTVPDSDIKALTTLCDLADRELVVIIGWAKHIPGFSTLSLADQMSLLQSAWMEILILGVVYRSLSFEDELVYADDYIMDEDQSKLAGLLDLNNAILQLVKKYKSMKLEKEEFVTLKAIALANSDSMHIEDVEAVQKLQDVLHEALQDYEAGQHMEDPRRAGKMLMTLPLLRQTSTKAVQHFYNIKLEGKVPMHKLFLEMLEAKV
# [10] = molecular target: T2, Estrogen-related receptor gamma (Homo sapiens); experiment: Inverse agonist activity at ERRgamma in human CAL62 cells assessed as restoration of sodium iodide symporter function by measuring increase in radioiodide avidity at 6 to 12 uM after 24 hrs by gamma counting analysis based [125-I]-iodide uptake assay; type: cell-based
# [11] = molecular target: T2, Estrogen-related receptor gamma (Homo sapiens); experiment: Inverse agonist activity at ERRgamma in human BHT101 cells assessed as restoration of sodium iodide symporter function by measuring increase in radioiodide avidity at 6 to 12 uM in presence of NIS inhibitor KClO4 after 24 hrs by gamma counting analysis based [125-I]-iodide uptake assay; type: cell-based
# [12] = molecular target: T2, Estrogen-related receptor gamma (Homo sapiens); experiment: Inverse agonist activity at ERRgamma in human CAL62 cells assessed as restoration of sodium iodide symporter function by measuring increase in radioiodide avidity at 6 to 12 uM in presence of NIS inhibitor KClO4 after 24 hrs by gamma counting analysis based [125-I]-iodide uptake assay; type: cell-based
# [13] = molecular target: T2, Estrogen-related receptor gamma (Homo sapiens); experiment: Inverse agonist activity at ERRgamma in human CAL62 cells assessed as increase in NIS mRNA expression at 6 to 12 uM by RT-PCR analysis; type: cell-based
# [14] = molecular target: T2, Estrogen-related receptor gamma (Homo sapiens); experiment: Inverse agonist activity at ERRgamma in human CAL62 cells assessed as increase in TSHR mRNA expression at 6 to 12 uM by RT-PCR analysis; type: cell-based
# [15] = molecular target: T2, Estrogen-related receptor gamma (Homo sapiens); experiment: Inverse agonist activity at ERRgamma in human CAL62 cells assessed as increase in TPO mRNA expression at 6 to 12 uM by RT-PCR analysis; type: cell-based
# [16] = molecular target: T2, Estrogen-related receptor gamma (Homo sapiens); experiment: Inverse agonist activity at ERRgamma in human CAL62 cells assessed as increase in TG mRNA expression at 6 to 12 uM by RT-PCR analysis; type: cell-based
# [17] = molecular target: T2, Estrogen-related receptor gamma (Homo sapiens); experiment: Inverse agonist activity at ERRgamma in human BHT101 cells assessed as increase in NIS mRNA expression at 6 to 12 uM by RT-PCR analysis; type: cell-based
# [18] = molecular target: T2, Estrogen-related receptor gamma (Homo sapiens); experiment: Inverse agonist activity at ERRgamma in human BHT101 cells assessed as increase in TSHR mRNA expression at 6 to 12 uM by RT-PCR analysis; type: cell-based
# [19] = molecular target: T2, Estrogen-related receptor gamma (Homo sapiens); experiment: Inverse agonist activity at ERRgamma in human BHT101 cells assessed as increase in TPO mRNA expression at 6 to 12 uM by RT-PCR analysis; type: cell-based
# [20] = molecular target: T2, Estrogen-related receptor gamma (Homo sapiens); experiment: Inverse agonist activity at ERRgamma in human BHT101 cells assessed as increase in TG mRNA expression at 6 to 12 uM by RT-PCR analysis; type: cell-based
# CAL-62 = experiment: Reduction in colony formation in human CAL62 cells at 6 uM after 24 hrs by crystal violet-based assay; type: ADME, cell-based; settings: cal-62, 24 h
# BHT-101 = experiment: Reduction in colony formation in human BHT101 cells at 6 uM after 24 hrs by crystal violet-based assay; type: ADME, cell-based; settings: bht-101, 24 h
# [21] = Potentiation of radio-iodine avidity in human CAL62 cells xenografted mouse assessed as increase in radio-iodine accumulation in tumor at 200 mg/kg, po dosed once daily for 6 days followed by 50 uCi 124-iodine dosing and measured after 2 hrs by PET/CT imaging analysis; type: ADME, organism-based, Neoplasm; settings: in vivo
# [22] = Genotoxicity in Salmonella typhimurium at 2 mM by mini Ames test; type: toxicity; settings: salmonella enterica subsp. enterica serovar typhimurium, 2000 µM
# in vivo = settings: Sprague-Dawley, rat, iv, 1 mg/kg
smiles,measurement,setting,value
CC(C)N1CCN(c2ccc(/C(=C(/CCCO)c3ccccc3)c3cccc(O)c3)cc2)CC1.Cl.Cl,"inhibition at 0.25 h, 10 µM",CYP1A2,0%
same,"inhibition at 0.25 h, 10 µM",CYP2C9,24.1%
same,"inhibition at 0.25 h, 10 µM",CYP2C19,0%
same,"inhibition at 0.25 h, 10 µM",CYP2D6,34%
same,"inhibition at 0.25 h, 10 µM",CYP3A4,53.3%
same,"remaining at 0.5 h, 1 µM",[1],65.4%
same,"remaining at 0.5 h, 1 µM",[2],61.2%
same,"remaining at 0.5 h, 1 µM",[3],54.9%
same,"remaining at 0.5 h, 1 µM",[4],26.9%
same,"Papp at 5 h, 10 µM",[5],1.29 ×10⁻⁶ cm/s
same,AUC(0-inf),[6],1 µM·h
same,AUC(0-inf),[7],4.71 µM·h
same,Tmax,[8],1.7 h
same,Activity,[9],Active
same,Activity,[10],Active
same,Activity,[11],inactive
same,Activity,[12],inactive
same,Activity,[13],Dose-dependent effect
same,Activity,[14],Dose-dependent effect
same,Activity,[15],Dose-dependent effect
same,Activity,[16],Dose-dependent effect
same,Activity,[17],Active
same,Activity,[18],Active
same,Activity,[19],Active
same,Activity,[20],Active
same,Activity,CAL-62,Non-Toxic
same,Activity,BHT-101,Non-Toxic
same,Activity,[21],Active
same,Activity,[22],Non-Toxic
same,AUC,in vivo,0.99 µM·h
